Results: US5703083A, “N-aminoalkyl-1-biphenylenyl-2-carboxamides; new dopamine receptor subtype specific ligands” (Neurogen Corporation, priority 1996, dated 1997)
Counter-ions that a name gives are not always drawn.

How the values were obtained:
[1] = biological target: D2 receptors from African Green monkey; assay: D2 receptor binding (displacement of 3H-YM 09151-2); conditions: COS cells with recombinant D2 receptors; 0.5 nM 3H-YM 09151-2; nonspecific binding with 1 mM spiperone
Method: (§1) Pellets of COS cells containing recombinantly produced D2 or D3 receptors from African Green monkey were used for the assays. The sample is homogenized in 100 volumes (w/vol) of 0.05M Tris HCI buffer at 4° C and pH 7.4. The sample is then centfifuged at 30,000×g and resuspended and rehomogenized. The sample is then centdfuged as described and the final tissue sample is frozen until use. The tissue is resuspended 1:20 (wt/vol) in 0.05M Tris HCl buffer containing 100 mM NaCl.
(§2) Incubations are carried out at 48° C and contain 0.4 ml of tissue sample, 0.5 nM ^3 H-YM 09151-2 and the compound of interest in a total incubation of 1.0 ml. Nonspecific binding is defined as that binding found in the presence of 1 mM spiperone; without further additions, nonspecific binding is less than 20% of total binding. The binding characteristics of representative compounds of the invention for D2 and D3 receptor subtypes are shown in Table 2 for rat striatal homogenates.

[2] = biological target: T1, D3 receptors from African Green monkey (Chlorocebus aethiops, UniProt P52703); assay: D3 receptor binding (displacement of 3H-YM 09151-2); conditions: COS cells with recombinant D3 receptors; 0.5 nM 3H-YM 09151-2; nonspecific binding with 1 mM spiperone
T1 construct: expressed in transfected cells; host or cells: COS cells
T1 sequence (P52703 whole entry): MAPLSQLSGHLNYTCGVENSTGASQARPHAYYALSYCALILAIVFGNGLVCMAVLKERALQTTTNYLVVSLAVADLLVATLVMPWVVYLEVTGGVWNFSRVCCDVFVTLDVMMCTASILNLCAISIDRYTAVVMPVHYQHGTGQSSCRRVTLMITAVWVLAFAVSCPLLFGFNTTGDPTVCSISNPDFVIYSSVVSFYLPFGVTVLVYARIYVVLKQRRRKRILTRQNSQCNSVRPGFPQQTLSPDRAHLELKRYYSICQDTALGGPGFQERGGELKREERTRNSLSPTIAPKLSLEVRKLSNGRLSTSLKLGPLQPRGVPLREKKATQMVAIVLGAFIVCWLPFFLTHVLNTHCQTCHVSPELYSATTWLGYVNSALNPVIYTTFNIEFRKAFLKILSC
Method: as §1, §2

SMILES | Ki [1] [nM] | Ki [2] [nM]
COc1ccccc1N1CCN(CCCCNC(=O)c2ccc3c(c2)-c2ccccc2-3)CC1 [Compound 1, 1-(2-Methoxyphenyl)-4-{4-[N-(1-biphenylene-2-carboxamido)]butyl}piperazine] | 323 | 5
O=C(NCCCCN1CCN(c2cccc3ccccc23)CC1)c1ccc2c(c1)-c1ccccc1-2 [Compound 3, 1-(1-Napthyl)-4-{4-[N-(1-biphenylene-2-carboxamido)]butyl}piperazine dihydrochloride] | 138 | 3
O=C(NCCCCN1CCN(c2nccc3ccccc23)CC1)c1ccc2c(c1)-c1ccccc1-2 [Compound 4, 1-(1-Isoquinolyl)-4-{4-[N-(1-biphenylene-2-carboxamido)]butyl}piperazine d ihydrochloride] | > 100 | 15
